Entries after “also recorded” stand apart in the source; their conditions may differ.
How the values were obtained:
chick embryo = assay: Chick embryo diss. assay (Table II); assay type: in vivo
Procedure: (§1) Using the chick embryo vitelline capillaries assay, compounds were tested for their ability to induce capillary regression. Each compound was applied in 0.1 ml of 15% Ficol 400 and PBS onto the embryo, and vascular regression was assessed after 60 minutes.

HM = HM MTT assay (Table II); assay type: cell-based; conditions: read-out: Minimum Effective Concentration, HM MTT assay
[1] = tested on: human microvascular cells; assay: Inhibition of endothelial cell cord formation in vitro; assay type: cell-based; conditions: for minimal effective concentration: Homo sapiens, Endothelial cell, Table II, read-out: Minimum Effective Concentration, Cord Formation
Text: Endothelial cells have the capacity in vitro to form tubular aggregates resembling capillaries in various early stages of formation. This conversion occurs under relatively specific conditions, in which essential growth factors along with an effective substratum are provided. It has been shown that both the interaction of growth factors with the endothelial cell and its attachment to a substratum activate the NHE. The activation of this exchanger is believed to be required for subsequent morphologic transformation of the endothelial cell into a multicellular tubular structure.
To assess the effect of compounds on the cord-like structures formed by human microvascular cells when plated in the presence of VEGF (Vascular Endothelial Growth Factor) and basic fibroblast growth factor on a collagen matrix, a standard cord formation assay was used.

[2] = tested on: vitelline capillaries of 3- to 5-day chick embryo; assay: Chick embryo vitelline capillary regression assay; assay type: in vivo; set-up: key to vascular reactivity: +: Vascular reactivity; 0: No vascular reactivity; +/-: Equivocal reactivity; conditions: for vascular reactivity: 60 minutes
Procedure: as §1
The 3-day chick embryo consists of an embryonic disc from which numerous vessels emerge and return, forming a "figure 8"-shaped structure--the embryo in the center with vascular loops extending outward over both poles. […] Following a lag period of around 15 minutes, the constriction of continuity between capillary and secondary vessels, generally on the "venous" side, was observed. Continued pulsatile blood flow progressed, resulting in a "swelling" of the blind tube, followed by a pinching off of the remaining connection and formation of an enclosed vascular sac resembling a "blood island." This process progressed until only the largest vessels remained intact.

Xenopus tadpoles = assay: Tadpole assay

## CC(CCC(=O)O)[C@H]1CCC2C3CC[C@H]4C[C@@H](NCCCNCCCCN)CC[C@]4(C)C3CC[C@@]21C (stereo partly shown)
Chick embryo
  Minimum Effective Concentration, chick embryo diss. assay: 0.001 µg
HM
  minimal effective concentration: 13.8 µg/mL

## CC(CCC(=O)O)[C@H]1CCC2C3C(CC[C@@]21C)[C@@]1(C)CC[C@H](NCCCNCCCCN)C[C@@H]1C[C@H]3O (stereo partly shown)
Chick embryo
  Minimum Effective Concentration, chick embryo diss. assay: > 10 µg

## CC(C)CCCC(C)[C@H]1CCC2C3CC[C@H]4C[C@H](NCCCN5CCCCN=C5N)CC[C@]4(C)C3CC[C@@]21C (stereo partly shown)
Chick embryo
  Minimum Effective Concentration, chick embryo diss. assay: > 10 µg

## COC(=O)CCC(C)[C@H]1CCC2C3C(CC[C@@]21C)[C@@]1(C)CCC(NCCCNCCCCNCCCN)C[C@@H]1C[C@H]3O (stereo partly shown)
Chick embryo
  Minimum Effective Concentration, chick embryo diss. assay: > 10 µg

## CC(CCC(=O)O)[C@H]1CCC2C3C(CC[C@@]21C)[C@@]1(C)CC[C@H](NCCCNCCCCNCCCN)C[C@H]1C[C@H]3O (stereo partly shown)
[1]
  minimal effective concentration: > 10 µg/mL

## CC(CCC(CO)(OS(=O)(=O)O)C(C)C)[C@H]1CCC2C3C(CC[C@@]21C)[C@@]1(C)CC[C@H](NCCCNCCCCN)C[C@@H]1C[C@H]3O (stereo partly shown)
Chick embryo
  Minimum Effective Concentration, chick embryo diss. assay: > 1 µg

## CC(CCC(=O)O)[C@H]1CCC2C3C(CC[C@@]21C)[C@@]1(C)CC[C@@H](NCCCNCCCCN)CC1C[C@H]3O (single isomer, unassigned)
Chick embryo
  Minimum Effective Concentration, chick embryo diss. assay: 0.01 µg

## CC(COS(=O)(=O)O)C(=O)CC[C@@H](C)[C@H]1CC[C@H]2[C@@H]3[C@H](O)C[C@H]4C[C@@H](NCCCNCCCCN)CC[C@]4(C)[C@H]3CC[C@]12C (single isomer, unassigned) [Compound 1360]
[2]; within 20 minutes
  effect on chick embryo blood: the blood circulating through the embryonic vessels exhibited a brighter red color
Xenopus tadpoles; 10 μg/ml, stage 59-60 Xenopus
  observed response in tadpole: Swelling and lysis of certain erythrocytes occurred; also recorded: Subsequent tissue breakdown occurred in areas of tail surrounding these nuclear plugs; also recorded: extensive vasocclusion occurred within 60 minutes throughout the tail

## C[C@H](CCC(=O)O)[C@H]1CC[C@H]2[C@@H]3[C@H](O)C[C@H]4C[C@@H](NCCCNCCCCN)CC[C@]4(C)[C@H]3CC[C@]12C [Compound 381]
[2]; 1 μg applied
  vascular reactivity: 0

## COC(=O)CC[C@@H](C)[C@H]1CC[C@H]2[C@@H]3[C@H](O)C[C@@H]4C[C@@H](NCCN)CC[C@]4(C)[C@H]3CC[C@]12C [Compound 409]
[2]; 1 μg applied
  vascular reactivity: 0
Xenopus tadpoles; Xenopus tadpole assay
  functional similarity in tadpole assay: functionally similar to compound 1437

## COC(=O)CC[C@@H](C)[C@H]1CC[C@H]2[C@@H]3[C@H](O)C[C@@H]4C[C@@H](NCCCNCCCCNCCCN)CC[C@]4(C)[C@H]3CC[C@]12C [Compound 411]
[2]; 0.1 μg applied
  vascular reactivity: 0

## C[C@H](CCC(=O)O)[C@H]1CC[C@H]2[C@@H]3[C@H](O)C[C@@H]4C[C@H](NCCCNCCCCNCCCN)CC[C@]4(C)[C@H]3CC[C@]12C [Compound 412]
Xenopus tadpoles; Xenopus tadpole assay
  functional similarity in tadpole assay: pharmacologic activity similar to that seen for FX 3
[1]; 10.0 μg/ml
  endothelial cord formation: +

## C[C@H](CCC(=O)O)[C@H]1CC[C@H]2[C@@H]3[C@H](O)C[C@@H]4C[C@@H](NCCCNCCCCNCCCN)CC[C@]4(C)[C@H]3CC[C@]12C [Compound 413]
[2]; 1 μg applied
  vascular reactivity: 0
Xenopus tadpoles; Xenopus tadpole assay
  functional similarity in tadpole assay: effects like those produced by compound 1436
[1]; 0.1 μg/ml
  endothelial cord formation: -

## C[C@H](CCC(=O)O)[C@H]1CC[C@H]2[C@@H]3[C@H](O)C[C@@H]4C[C@H](NCCN)CC[C@]4(C)[C@H]3CC[C@]12C [Compound 414]
[2]; 1 μg applied
  vascular reactivity: 0
Xenopus tadpoles; Xenopus tadpole assay
  functional similarity in tadpole assay: pharmacologic activity similar to Fraction 1
  potency in tadpole assay relative to Fraction 1: potencies comparable to that of Fraction 1

## C[C@H](CCC(=O)O)[C@H]1CC[C@H]2[C@@H]3[C@H](O)C[C@@H]4C[C@@H](NCCN)CC[C@]4(C)[C@H]3CC[C@]12C [Compound 415]
[2]; Table 5
  activity in vitelline capillary regression assay: especially active
[1]; 10.0 μg/ml
  endothelial cord formation: +/T

## CC(C)CCCC(C)[C@H]1CCC2C3C(CC[C@@]21C)[C@@]1(C)CC[C@@H](NCCCNCCCCN)C[C@@H]1C[C@H]3O (stereo partly shown) [drawing 86]
Chick embryo
  Minimum Effective Concentration, chick embryo diss. assay: > 10 µg
HM
  minimal effective concentration: 4 µg/mL

## CC(C)CCCC(C)[C@H]1CCC2C3C(CC[C@@]21C)[C@@]1(C)CC[C@H](NCCCNCCCCN)C[C@@H]1C[C@H]3O (stereo partly shown) [drawing 87]
Chick embryo
  Minimum Effective Concentration, chick embryo diss. assay: 1.10 µg

## CC(C)CCCC(C)[C@H]1CCC2C3C(CC[C@@]21C)[C@@]1(C)CC[C@H](N)C[C@@H]1C[C@H]3O (stereo partly shown) [drawing 88]
Chick embryo
  Minimum Effective Concentration, chick embryo diss. assay: 1 µg

## COC(=O)CCC(C)[C@H]1CCC2C3C(CC[C@@]21C)[C@@]1(C)CC[C@H](NCCN)C[C@H]1C[C@H]3O (stereo partly shown) [drawing 92]
Chick embryo
  Minimum Effective Concentration, chick embryo diss. assay: > 1 µg

## COC(=O)CCC(C)[C@H]1CCC2C3CC[C@H]4C[C@@H](NCCCNCCCCNCCCN)CC[C@]4(C)C3CC[C@@]21C (stereo partly shown) [drawing 99]
HM
  minimal effective concentration: 5 µg/mL

## COC(=O)CCC(C)[C@H]1CCC2C3C[C@@H](O)[C@H]4C[C@@H](NCCCNCCCCNCCCN)CC[C@]4(C)C3CC[C@@]21C (stereo partly shown) [drawing 101]
Chick embryo
  Minimum Effective Concentration, chick embryo diss. assay: 1 µg

## COC(=O)CCC(C)[C@H]1CCC2C3C[C@@H](O)[C@H]4C[C@H](NCCN)CC[C@]4(C)C3CC[C@@]21C (stereo partly shown) [drawing 103]
Chick embryo
  Minimum Effective Concentration, chick embryo diss. assay: > 1 µg

## CC(CCC(=O)O)[C@H]1CCC2C3C[C@@H](O)[C@H]4C[C@@H](NCCN)CC[C@]4(C)C3CC[C@@]21C (stereo partly shown) [drawing 105]
Chick embryo
  Minimum Effective Concentration, chick embryo diss. assay: 1 µg

## COC(=O)CCC(C)[C@H]1CCC2C3CC[C@@H]4C[C@H](NCCCNCCCCNCCCN)CC[C@]4(C)C3C[C@H](O)[C@@]21C (stereo partly shown) [drawing 106]
Chick embryo
  Minimum Effective Concentration, chick embryo diss. assay: 1 µg

## CC(CCC(=O)O)[C@H]1CCC2C3CC[C@@H]4C[C@H](NCCCNCCCCNCCCN)CC[C@]4(C)C3C[C@H](O)[C@@]21C (stereo partly shown) [drawing 107]
Chick embryo
  Minimum Effective Concentration, chick embryo diss. assay: > 1 µg

## COC(=O)CCC(C)[C@H]1CCC2C3C(CC[C@@]21C)[C@@]1(C)CC[C@H](NCCCNCCCCNCCCN)C[C@H]1C[C@H]3O (stereo partly shown) [drawing 109]
Chick embryo
  Minimum Effective Concentration, chick embryo diss. assay: > 1 µg
[1]
  minimal effective concentration: 10 µg/mL

## CC(CCC(=O)O)[C@H]1CCC2C3C(CC[C@@]21C)[C@@]1(C)CC[C@@H](NCCCNCCCCNCCCN)C[C@H]1C[C@H]3O (stereo partly shown) [drawing 110]
[1]
  minimal effective concentration: > 10 µg/mL
HM
  minimal effective concentration: 18.1 µg/mL

## CC(CCC(=O)O)[C@H]1CCC2C3C(CC[C@@]21C)[C@@]1(C)CC[C@H](NCCN)C[C@H]1C[C@H]3O (stereo partly shown) [drawing 113]
[1]
  minimal effective concentration: > 10 µg/mL

## COC(=O)CCC(C)[C@H]1CCC2C3CC[C@@H]4C[C@H](NCCN)CC[C@]4(C)C3C[C@H](O)[C@@]21C (stereo partly shown) [drawing 114]
HM
  minimal effective concentration: 2.4 µg/mL

## CC(CCC(=O)O)[C@H]1CCC2C3CC[C@@H]4C[C@H](NCCN)CC[C@]4(C)C3C[C@H](O)[C@@]21C (stereo partly shown) [drawing 115]
Chick embryo
  Minimum Effective Concentration, chick embryo diss. assay: > 1 µg

## CC(C)[C@@H](CC[C@@H](C)[C@H]1CC[C@H]2[C@@H]3[C@H](O)C[C@H]4C[C@@H](NCCCNCCCCN)CC[C@]4(C)[C@H]3CC[C@]12C)OS(=O)(=O)O [drawing 116]
HM
  minimal effective concentration: 7.8 µg/mL
